Source: patent US20040049353A1, “System and method for monitoring water using bivalve mollusks” (priority 2003, published 2004)

System: mollusks
Experiment: Exposure of mollusks in the water-monitoring system to toxicant-loaded water; shell gape and Degree of Alarm (DOA)
Assay type: in vivo
Method: Further calibration of the system is performed after one or more mollusk chambers are properly installed. The digital circuitry or computer 39 then monitors the gape of the mollusk during approximately the first three days after installation. From the gape values derived during this period, the computer derives a natural maximum gape value for the individual mollusk. Subsequent calculations based on output from the mollusk chamber 15 are based on the percentage of gape, i.e., the percentage of the maximum gape output value that the presently detected gape output value represents.
When the system 3 contains a number of mollusk chambers 15, the individual mollusk percentage gape data for all of the mollusks of the system is totaled, and the average percentage gape value calculated periodically per sampling interval by computer 38. This mean data value Gi is the variable used as the mollusk output data for determining if toxicants are present in the water being screened.
In the present specification, Gi means the current average mollusk gape data, Gi−1 means the most recent earlier mollusk output value, Gi−2 the next earlier mollusk output variable, etc. The oldest of the gape values is Gi−n+1. Preferably, the set of data values Gi−n+1 to Gi are stored in a FIFO (first-in, first-out) stack data structure in the computer doing the analysis. The stack acts as a shift register, shifting earlier data values as the new data value Gi is acquired. Preferably the value of n is 30, and the data values G are acquired every half-second.
A variable referred to as Degree of Alarm (“DOA”) is derived from the mean mollusk output data using one of a variety of analysis formulae or methods, ranging from simpler models to more complex systems based on neural net technology that can identify the particular toxicant types that are present in the water and causing a reaction by the mollusks.
According to an aspect of the invention, the variance over time of the gape values is one of the best statistical indicators of the pumping of the mollusk. By the term variance, what is meant is a determination of the variability of the gape values from a mean value, which may be determined or expressed using a variety of functions. Particularly preferred, however, is the classical calculation of variance as: [formula]
wherein V is the mean variance in gape over a recent period of time, preferably 30 seconds, R is the mean regression of the gape over the period (regression herein meaning the slope of the best-fit line through the data values of the time period). M may be the traveling mean as defined above, or may be the mean gape taken over another longer period, preferably about one hour.
An implementation of this method is shown by the graphs of FIGS. 7 to 10. Water being screened by a system as described previously was loaded with sulphuric acid, resulting in a drop in pH as shown in the graph of FIG. 7.
An implementation of such a DOA method using a Logistic calculation, with a variance factor added for variances over 50, is illustrated by the graphs of FIGS. 12 to 16.
In this example, a system as in Example 3 was used, only the toxicant introduced was copper (as aqueous CuSO4), as shown in FIG. 17.

`[Cl-].[Na+]` [chloride, NaCl] was tested, and the DOA output (Logistic calculation with variance factor for variances over 50, at 0.5 hours, chloride concentration still relatively low) was “greater than 5” and the “raw gape data, decreasing gape over time” value (gradually increasing concentration of chloride (as aqueous NaCl)) was “less than 40 % of normal maximum gape”.

With `O=S(=O)([O-])[O-].[Cu+2]` [copper, CuSO4] the DOA values (Logistic calculation with variance factor, out of a possible 10, between 0.5 and 1.0 hours, copper concentration still relatively low) was “exceed 8” and the “gape when DOA exceeded 8” value (copper (as aqueous CuSO4), between 0.5 and 1.0 hours) was 50%.

For `O=S(=O)(O)O` [sulphuric acid], the “DOA values (spike)” value (DOA=(V·|R|)/M, water loaded with sulphuric acid, before 200 minutes) was “greater than 100”, the “average percentage gape of the mollusks” value (water loaded with sulphuric acid (drop in pH), shortly after 200 minutes) was “less than 10 % of the normal maximum” and the “percentage gape when variance spikes” value (water loaded with sulphuric acid, variance over ten most recent values spikes shortly before 200 minutes) was 40%.
